Measurements taken from publication PMC10538245, “Fragment merging approach for design, synthesis, and biological assessment of urea/acetyl hydrazide clubbed thienopyrimidine derivatives as GSK-3β inhibitors” (BMC Chemistry, 2023).

Tests used:
GSK-3β = GSK-3β (Homo sapiens, UniProt P49841); assay: GSK-3β kinase inhibition, Z'-LYTE FRET assay (Thermo Fisher SelectScreen); type: biochemical; conditions: for inhibition at 100 µM: 100 μM single dose
786–0 = assay: NCI 60-cell line one dose antiproliferative assay; type: cell-based; conditions: Homo sapiens; 786–0, Renal Cancer, 10 µM one dose; read-out: Percent inhibition (cell growth inhibition %)
From the text: (§1) The National Cancer Institute "NCI", NIH, Bethesda, Maryland, USA (www.dtp.nci.nih.gov) chose six of the final compounds for the Developmental Therapeutic Program (DTP), codes (5a, 5b, 5c, 5d, 6a, 6b). The NCI screening service will favor compounds with drug-like modes of action based on computer-aided design. Selection The criterion for screening is the possibility of the submitted compounds to provide diversity to the NCI small molecule chemical collection. This screen employs 60 different Leukemia, melanoma, and additional tumor cell lines of the human from brain, kidney, lung, ovary, colon, breast, and prostate cancers. All compounds were picked based on their NCI codes. NSC: D-820696/1, NSC: D-820697/1, NSC: D-820698/1, NSC: D-820699/1, NSC: D-820700/1, NSC: D-820701/1. The initial 10 µM one dose percent inhibition assay was performed on the entire NCI 60 cell panel to examine the different chemotypes of this work. The results are presented as a percentage of cell growth on each of the 60 NCI cell line panels for each of the investigated substances in Table 2.
(§2) The NCI cancer screening procedure includes a comparison of all substances to the sixty NCI cell line panel representing leukemia, NSCLC, cell lines from breast cancer, prostate cancer, melanoma, CNS cancer, renal cancer, ovarian cancer, and colon cancer at a single point of 10 uM. The results of the single-dose screen can be presented using a mean graph.

A498 = assay: NCI 60-cell line one dose antiproliferative assay; type: cell-based; conditions: Homo sapiens; A498, Renal Cancer, 10 µM one dose; read-out: Percent inhibition (cell growth inhibition %)
From the text: as §1, §2

A549/ ATCC = assay: NCI 60-cell line one dose antiproliferative assay; type: cell-based; conditions: Homo sapiens, Non-Small Cell Lung Cancer, 10 µM one dose, read-out: Percent inhibition (cell growth inhibition %)
From the text: as §1, §2

BT-549 = assay: NCI 60-cell line one dose antiproliferative assay; type: cell-based; conditions: Homo sapiens; BT-549, Breast Cancer, 10 µM one dose; read-out: Percent inhibition (cell growth inhibition %)
From the text: as §1, §2

CAKI-1 = assay: NCI 60-cell line one dose antiproliferative assay; type: cell-based; conditions: Homo sapiens; CAKI-1, Renal Cancer, 10 µM one dose; read-out: Percent inhibition (cell growth inhibition %)
From the text: as §1, §2

EKVX = assay: NCI 60-cell line one dose antiproliferative assay; type: cell-based; conditions: Homo sapiens, Non-Small Cell Lung Cancer, 10 µM one dose, read-out: Percent inhibition (cell growth inhibition %)
From the text: as §1, §2

HCT-116 = assay: NCI 60-cell line one dose antiproliferative assay; type: cell-based; conditions: Homo sapiens; HCT-116, Colon Cancer, 10 µM one dose; read-out: Percent inhibition (cell growth inhibition %)
From the text: as §1, §2

HS 578 T = assay: NCI 60-cell line one dose antiproliferative assay; type: cell-based; conditions: Homo sapiens, Breast Cancer, 10 µM one dose, read-out: Percent inhibition (cell growth inhibition %)
From the text: as §1, §2

IGROV1 = assay: NCI 60-cell line one dose antiproliferative assay; type: cell-based; conditions: Homo sapiens, IGROV-1; IGROV1, Ovarian Cancer, 10 µM one dose; read-out: Percent inhibition (cell growth inhibition %)
From the text: as §1, §2

K-562 = assay: NCI 60-cell line one dose antiproliferative assay; type: cell-based; conditions: Homo sapiens, K562; K-562, Leukemia, 10 µM one dose; read-out: Percent inhibition (cell growth inhibition %)
From the text: as §1, §2

LOX IMVI = assay: NCI 60-cell line one dose antiproliferative assay; type: cell-based; conditions: Homo sapiens, Melanoma, 10 µM one dose, read-out: Percent inhibition (cell growth inhibition %)
From the text: as §1, §2

MCF7 = assay: NCI 60-cell line one dose antiproliferative assay; type: cell-based; conditions: Homo sapiens; MCF7, Breast Cancer, 10 µM one dose; read-out: Percent inhibition (cell growth inhibition %)
From the text: as §1, §2

MDA-MB-231/ATCC = assay: NCI 60-cell line one dose antiproliferative assay; type: cell-based; conditions: Homo sapiens, Breast Cancer, 10 µM one dose, read-out: Percent inhibition (cell growth inhibition %)
From the text: as §1, §2

MDA-MB-435 = assay: NCI 60-cell line one dose antiproliferative assay; type: cell-based; conditions: Homo sapiens; MDA-MB-435, Melanoma, 10 µM one dose; read-out: Percent inhibition (cell growth inhibition %)
From the text: as §1, §2

MOLT-4 = assay: NCI 60-cell line one dose antiproliferative assay; type: cell-based; conditions: Homo sapiens; MOLT-4, Leukemia, 10 µM one dose; read-out: Percent inhibition (cell growth inhibition %)
From the text: as §1, §2

NCI-H23 = assay: NCI 60-cell line one dose antiproliferative assay; type: cell-based; conditions: Homo sapiens; NCI-H23, Non-Small Cell Lung Cancer, 10 µM one dose; read-out: Percent inhibition (cell growth inhibition %)
From the text: as §1, §2

NCI-H522 = assay: NCI 60-cell line one dose antiproliferative assay; type: cell-based; conditions: Homo sapiens; NCI-H522, Non-Small Cell Lung Cancer, 10 µM one dose; read-out: Percent inhibition (cell growth inhibition %)
From the text: as §1, §2

OVCAR-5 = assay: NCI 60-cell line one dose antiproliferative assay; type: cell-based; conditions: Homo sapiens; OVCAR-5, Ovarian Cancer, 10 µM one dose; read-out: Percent inhibition (cell growth inhibition %)
From the text: as §1, §2

SF-268 = assay: NCI 60-cell line one dose antiproliferative assay; type: cell-based; conditions: Homo sapiens; SF-268, CNS Cancer, 10 µM one dose; read-out: Percent inhibition (cell growth inhibition %)
From the text: as §1, §2

SF-539 = assay: NCI 60-cell line one dose antiproliferative assay; type: cell-based; conditions: Homo sapiens; SF-539, CNS Cancer, 10 µM one dose; read-out: Percent inhibition (cell growth inhibition %)
From the text: as §1, §2

SN12C = assay: NCI 60-cell line one dose antiproliferative assay; type: cell-based; conditions: Homo sapiens, Renal Cancer, 10 µM one dose, read-out: Percent inhibition (cell growth inhibition %)
From the text: as §1, §2

SNB-19 = assay: NCI 60-cell line one dose antiproliferative assay; type: cell-based; conditions: Homo sapiens; SNB-19, CNS Cancer, 10 µM one dose; read-out: Percent inhibition (cell growth inhibition %)
From the text: as §1, §2

SNB-75 = assay: NCI 60-cell line one dose antiproliferative assay; type: cell-based; conditions: Homo sapiens; SNB-75, CNS Cancer, 10 µM one dose; read-out: Percent inhibition (cell growth inhibition %)
From the text: as §1, §2

SR = assay: NCI 60-cell line one dose antiproliferative assay; type: cell-based; conditions: Homo sapiens, Leukemia, 10 µM one dose, read-out: Percent inhibition (cell growth inhibition %)
From the text: as §1, §2

U251 = assay: NCI 60-cell line one dose antiproliferative assay; type: cell-based; conditions: Homo sapiens, U-251; U251, CNS Cancer, 10 µM one dose; read-out: Percent inhibition (cell growth inhibition %)
From the text: as §1, §2

UACC-62 = assay: NCI 60-cell line one dose antiproliferative assay; type: cell-based; conditions: Homo sapiens; UACC-62, Melanoma, 10 µM one dose; read-out: Percent inhibition (cell growth inhibition %)
From the text: as §1, §2

UO-31 = assay: NCI 60-cell line one dose antiproliferative assay; type: cell-based; conditions: Homo sapiens; UO-31, Renal Cancer, 10 µM one dose; read-out: Percent inhibition (cell growth inhibition %)
From the text: as §1, §2

MDA-MB-468 = assay: NCI 60-cell line one dose antiproliferative assay; type: cell-based; conditions: Homo sapiens; MDA-MB-468, Breast Cancer, 10 µM one dose; read-out: Percent inhibition (cell growth inhibition %)
From the text: as §1, §2

NCI-H226 = assay: NCI 60-cell line one dose antiproliferative assay; type: cell-based; conditions: Homo sapiens; NCI-H226, Non-Small Cell Lung Cancer, 10 µM one dose; read-out: Percent inhibition (cell growth inhibition %)
From the text: as §1, §2

NCI-H322M = assay: NCI 60-cell line one dose antiproliferative assay; type: cell-based; conditions: Homo sapiens, Non-Small Cell Lung Cancer, 10 µM one dose, read-out: Percent inhibition (cell growth inhibition %)
From the text: as §1, §2

NCI-H460 = assay: NCI 60-cell line one dose antiproliferative assay; type: cell-based; conditions: Homo sapiens; NCI-H460, Non-Small Cell Lung Cancer, 10 µM one dose; read-out: Percent inhibition (cell growth inhibition %)
From the text: as §1, §2

PC-3 = assay: NCI 60-cell line one dose antiproliferative assay; type: cell-based; conditions: Homo sapiens; PC-3, Prostate Cancer, 10 µM one dose; read-out: Percent inhibition (cell growth inhibition %)
From the text: as §1, §2

RXF 393 = assay: NCI 60-cell line one dose antiproliferative assay; type: cell-based; conditions: Homo sapiens; RXF 393, Renal Cancer, 10 µM one dose; read-out: Percent inhibition (cell growth inhibition %)
From the text: as §1, §2

SK-MEL-5 = assay: NCI 60-cell line one dose antiproliferative assay; type: cell-based; conditions: Homo sapiens; SK-MEL-5, Melanoma, 10 µM one dose; read-out: Percent inhibition (cell growth inhibition %)
From the text: as §1, §2

SW-620 = assay: NCI 60-cell line one dose antiproliferative assay; type: cell-based; conditions: Homo sapiens; SW-620, Colon Cancer, 10 µM one dose; read-out: Percent inhibition (cell growth inhibition %)
From the text: as §1, §2

T-47D = assay: NCI 60-cell line one dose antiproliferative assay; type: cell-based; conditions: Homo sapiens, T47D, Breast Cancer, 10 µM one dose, read-out: Percent inhibition (cell growth inhibition %)
From the text: as §1, §2

GSK-3β, sequence (P49841 whole entry): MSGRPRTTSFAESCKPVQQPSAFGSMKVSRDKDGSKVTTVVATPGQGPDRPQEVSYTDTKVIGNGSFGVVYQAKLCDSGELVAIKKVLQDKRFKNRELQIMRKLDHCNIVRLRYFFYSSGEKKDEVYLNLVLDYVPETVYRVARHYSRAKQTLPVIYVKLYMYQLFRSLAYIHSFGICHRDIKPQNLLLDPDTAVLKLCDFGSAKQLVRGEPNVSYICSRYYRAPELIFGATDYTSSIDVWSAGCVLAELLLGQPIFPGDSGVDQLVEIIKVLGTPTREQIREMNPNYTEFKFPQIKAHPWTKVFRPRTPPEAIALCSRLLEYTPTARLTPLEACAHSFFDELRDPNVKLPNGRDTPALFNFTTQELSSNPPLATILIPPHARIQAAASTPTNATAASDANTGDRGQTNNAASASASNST

| SMILES | inhibition at 100 µM (GSK-3β) [%] | inhibition at 10 µM (A498) [%] | inhibition at 10 µM (A549/ ATCC) [%] | inhibition at 10 µM (CAKI-1) [%] | inhibition at 10 µM (HS 578 T) [%] | inhibition at 10 µM (IGROV1) [%] | inhibition at 10 µM (LOX IMVI) [%] | inhibition at 10 µM (MCF7) [%] | inhibition at 10 µM (MOLT-4) [%] | inhibition at 10 µM (NCI-H522) [%] | inhibition at 10 µM (OVCAR-5) [%] | inhibition at 10 µM (SF-268) [%] | inhibition at 10 µM (SNB-19) [%] | inhibition at 10 µM (SNB-75) [%] | inhibition at 10 µM (UACC-62) [%] | inhibition at 10 µM (UO-31) [%] | melting point [°C] | also measured |
| --- | --- | --- | --- | --- | --- | --- | --- | --- | --- | --- | --- | --- | --- | --- | --- | --- | --- | --- |
| O=C(COc1ncnc2sc3c(c12)CCCC3)NN=Cc1ccc(Br)cc1 [5c, N'-(4-Bromobenzylidene)-2-((5,6,7,8-tetrahydrobenzo[4,5]thieno[2,3-d]pyrimidin-4-yl)oxy)acetohydrazide] | 43 | 21.3 | 1.87 | 16.7 | 7.31 | 2.52 | 3.68 | 8.67 | 9.38 | 10.3 | 10 | 5.08 | 5.53 | 13.6 | 6.58 | 16.6 | 290 to 292 | inhibition at 10 µM (786–0): 5.22%; inhibition at 10 µM (BT-549): 2.58%; inhibition at 10 µM (EKVX): 3.66%; inhibition at 10 µM (HCT-116): 3.24%; inhibition at 10 µM (K-562): 13.5%; inhibition at 10 µM (MDA-MB-231/ATCC): 11.2%; inhibition at 10 µM (MDA-MB-435): 0.85%; inhibition at 10 µM (NCI-H23): 0.25%; inhibition at 10 µM (SF-539): 1.02%; inhibition at 10 µM (SN12C): 3.09%; inhibition at 10 µM (SR): 8.29%; inhibition at 10 µM (U251): 6.99% |
| CN(C)c1ccc(C=NNC(=O)COc2ncnc3sc4c(c23)CCCC4)cc1 [5d, N'-(4-(Dimethylamino)benzylidene)-2-((5,6,7,8-tetrahydrobenzo [4,5]thieno[2,3-d]pyrimidin-4-yl)oxy) acetohydrazide] | 50 | 48.4 | 1.15 | 5.26 | 5.71 | 14.4 | 2.93 | 7.82 | 0.81 | 4.74 | 8.97 | 1.44 | 3.31 | 18.8 | 5.34 | 24 | 285 | inhibition at 10 µM (GSK-3β; 10 μM): 5%; inhibition at 10 µM (MDA-MB-468): 15.8%; inhibition at 10 µM (NCI-H226): 8.81%; inhibition at 10 µM (NCI-H322M): 3.69%; inhibition at 10 µM (NCI-H460): 1.04%; inhibition at 10 µM (PC-3): 3.93%; inhibition at 10 µM (RXF 393): 7.97%; inhibition at 10 µM (SK-MEL-5): 0.27%; inhibition at 10 µM (SW-620): 2.39%; inhibition at 10 µM (T-47D): 0.95% |
